pKd: −log10 of the molar value.
Key:
[1] = target: FimHFL (full length FimH) (Escherichia coli, UniProt P08191); experiment: competitive fluorescence polarization assay; assay type: binding
[2] = ligand solubility in assay buffer; assay type: physicochemical; conditions: for solubility: assay buffer with 5% or 10% DMSO; for highest achievable ligand concentration: assay buffer, final DMSO concentration 10%
[3] = target: T1, FimHLD (isolated lectin domain of FimH) (Escherichia coli, UniProt P08191); experiment: competitive fluorescence polarization assay; assay type: binding; conditions: for factor of affinity improvement from 1: aglycone optimization
FimHLD = FimHLD (Escherichia coli, UniProt P08191); experiment: isothermal titration calorimetry; assay type: binding; conditions: ITC KD versus FPA KD
[4] = target: T1, FimHLD (isolated lectin domain of FimH); conditions: read-out: KD FimHLD; competitive FPA; mannosides; ref [18] and [19]; cited from earlier work

T1 sequence (P08191 22-179): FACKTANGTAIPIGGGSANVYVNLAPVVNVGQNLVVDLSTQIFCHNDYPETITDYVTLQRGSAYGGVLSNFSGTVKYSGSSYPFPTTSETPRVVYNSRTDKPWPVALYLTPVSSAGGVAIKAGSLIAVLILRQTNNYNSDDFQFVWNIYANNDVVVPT
Chain of FimHFL (full length FimH) (P08191 22-300, other chains not shown): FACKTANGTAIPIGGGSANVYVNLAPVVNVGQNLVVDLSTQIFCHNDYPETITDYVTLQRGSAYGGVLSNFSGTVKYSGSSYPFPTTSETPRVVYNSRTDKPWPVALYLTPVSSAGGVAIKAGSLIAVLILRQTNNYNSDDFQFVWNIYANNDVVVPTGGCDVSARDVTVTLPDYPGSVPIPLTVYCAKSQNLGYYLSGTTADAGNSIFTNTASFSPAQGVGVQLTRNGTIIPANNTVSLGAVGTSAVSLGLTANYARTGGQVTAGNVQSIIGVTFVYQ
Chain of FimHLD (P08191 22-179): as the sequence (P08191 22-179) above

## N#Cc1ccc(-c2ccc(CO[C@H]3CO[C@H](CO)[C@@H](O)[C@H](O)[C@@H]3O)cc2)cc1 [7a, 2-O-(4-[4-cyanophenyl]benzyl)-1,6-anhydro-D-glycero-D-galactitol]
[1]; para-cyano group on outer aromatic ring versus unsubstituted 7c
  increase in binding affinity to FimHFL: approximately 2 fold
[2]
  solubility: insufficient solubility

## N#Cc1ccc(-c2ccc(O[C@H]3CO[C@H](CO)[C@@H](O)[C@H](O)[C@@H]3O)c(Cl)c2)cc1 [8a, 2-O-[4-(4’-cyanophenyl)-2-chlorophenyl]-1,6-anhydro-D-glycero-D-galactitol]
[3]; FPA, ortho-chloro modification
  factor of affinity improvement compared to 6: 2.6
[1]; FimHFL, FPA, versus 6
  factor of affinity gain by ortho-chloro modification: 6
[2]
  solubility: low solubility
  highest achievable ligand concentration: ≤ 500 µM

## OC[C@H]1OC[C@H](Oc2ccc(-c3ccccc3)cc2Cl)[C@@H](O)[C@@H](O)[C@@H]1O [8c, 2-O-[4-phenyl-2-chlorophenyl]-1,6-anhydro-D-glycero-D-galactitol]
[3]; FPA
  factor of affinity improvement from 1: 32
[2]
  solubility: low solubility
  highest achievable ligand concentration: ≤ 500 µM

## N#Cc1ccc(-c2ccc(CO[C@H]3CO[C@H](CO)[C@@H](O)[C@H](O)[C@@H]3O)c(Cl)c2)cc1 [9a, 2-O-(2-chloro-4-[4-cyanophenyl]benzyl)-1,6-anhydro-D-glycero-D-galactitol]
[3]; FPA
  factor of affinity improvement from 1: 1.5

## OC[C@H]1OC[C@H](OCc2ccccc2)[C@@H](O)[C@@H](O)[C@@H]1O [compound 4, 2-O-benzyl-1,6-anhydro-D-glycero-D-galactitol]
[3]; FPA
  factor of loss in binding affinity compared to phenylpropyl analog 5: 10

## N#Cc1ccc(-c2ccc(O[C@H]3CO[C@H](CO)[C@@H](O)[C@H](O)[C@@H]3O)cc2)cc1 [compound 6, 2-O-(4-[4-cyanophenyl]phenyl)-1,6-anhydro-D-glycero-D-galactitol]
[3]; FPA
  factor of affinity increase compared to 7a: 6
FimHLD
  ITC binding affinity lower than recorded in the FPA assay: approx. 3 fold
[2]
  solubility: low solubility
  highest achievable ligand concentration: ≤ 500 µM

## N#Cc1ccc(-c2ccc(O[C@H]3O[C@H](CO)[C@@H](O)[C@H](O)[C@@H]3O)cc2)cc1 [compound 27]
[4]
  pKd: 8.70

## NC(=O)c1ccc(-c2ccc(O[C@H]3O[C@H](CO)[C@@H](O)[C@H](O)[C@@H]3O)cc2)cc1 [compound 28]
[4]
  pKd: 8.55

## N#Cc1ccc(-c2ccc(O[C@H]3O[C@H](CO)[C@@H](O)[C@H](O)[C@@H]3O)c(Cl)c2)cc1 [compound 30, reference compound]
[3]; mannoside ligands, from literature KD values
  factor of affinity improvement comparing 2 to 30: 56.6
